In patent publication US9428726B2, “Modified host cells with efflux pumps” (priority 2010, dated 2016):
Entries after “also recorded” stand apart in the source; their conditions may differ. Read-outs that look alike come from different tables or passages of the source.

Assays:
E. coli DH1 ΔacrAB [1] = details: for toxicity of the biofuel to cell growth: E. coli host, in words; for biofuel level that inhibited growth: added to pooled culture in M9 minimal medium, aimed at an inhibitory concentration that reduced growth by 25%
Description: In order to screen the efflux pump library against a variety of biofuels we devised a competition-based strategy to select for pumps that improved biofuel tolerance (FIG. 1A). Cells containing plasmids with individual pumps were grown separately and then pooled so that all individual strains were represented equally. This pooled culture was then grown both with and without biofuel, and maintained through serial dilutions every 10-14 hours over a total of 96 hours. At each dilution time point, plasmids from each culture were isolated and a custom microarray was used to quantify the amount of each efflux pump plasmid present in the culture (Methods).
Pooled culture glycerol stocks were used to inoculate M9 minimal medium with 30 μg/ml kanamycin and 10 μM IPTG. The culture was then divided into tubes to a final volume of 5 ml and biofuel was added directly to the tubes. All conditions were prepared in triplicate. Cultures were grown at 37° C. with orbital shaking at 200 rpm for all experiments.
Every 10-14 hours the cultures were diluted 1:100 into 5 ml of fresh M9 minimal medium with kanamycin, IPTG, and biofuel (where applicable). For the time-course assay, cultures were spun down at the completion of a growth cycle and plasmids were isolated. For end point competition assays, plasmid was isolated from the culture after 72 hours of serial dilution.
Custom microarrays (NimbleGen, Roche, USA) were used to measure the relative quantities of the efflux pumps present in the plasmid DNA isolated from the competition cultures. Arrays were designed so that they contained probes for all HAE1 annotated efflux pumps from all sequenced bacterial genomes. 12×135K arrays were used to allow for 12 experiments per slide.
Plasmid DNA was labeled and hybridized following the protocol for NimbleGen Comparative Genomic Hybridization Microarrays with minor modifications (Supporting Methods). Data were normalized using the standard settings for RMA analysis in the NimbleScan software. Probe values were averaged using a custom Matlab script (Mathworks, Inc.). […] For the positive hybridization control, all library plasmids were prepared individually and combined in vitro in equal proportions. For the negative hybridization control, a plasmid with the same vector backbone as those in the library, but no efflux pump, was isolated from DH1 ΔacrAB. Both hybridization controls were labeled and hybridized to the array using the methods described above.
This required the use of a co-solvent in order to accurately pipette small volumes. In both cases dimethylformamide (DMF) was used as the co-solvent. […] Other biofuels were added directly without the use of a co-solvent.

E. coli DH1 ΔacrAB [2] = type: cell-based; details: top performing pump versus negative control, FIG. 3B and 3D
Description: Individual strains were adapted to M9 minimal medium as described in the Supporting Methods. […] The biofuel being tested was added directly to the cultures and they were grown overnight at 37° C. with orbital shaking. For end point measurements, the optical density was measured after 14 hours of growth in triplicate 5 ml cultures. For growth curve measurements, cultures were grown in triplicate in 24-well plates with 800 μl per well and optical density was measured every 10 minutes with a plate reader (BioTek Synergy 4, USA).

[3] = 2% geranyl acetate, serial dilution competition

| Molecule | biofuel level that inhibited growth (E. coli DH1 ΔacrAB [1]) | effect of efflux pumps on tolerance to the biofuel (survival relative to pump-free negative control) (E. coli DH1 ΔacrAB [2]) | outcome of efflux pump in competition (E. coli DH1 ΔacrAB [1]; [3]) | other results |
| --- | --- | --- | --- | --- |
| CC(C)=CCC/C(C)=C/CO [geraniol] | 0.05 % v/v | increase survival several-fold |  | toxicity of the biofuel to cell growth (E. coli DH1 ΔacrAB [1]): high and quite toxic |
| CC(=O)OC/C=C(\C)CCC=C(C)C [geranyl acetate] | 2 % v/v | essentially confer immunity |  |  |
| CC(C)CCO [isopentanol] | 0.25 % v/v | none of the pumps we tested confer an advantage |  | toxicity of the biofuel to cell growth (E. coli DH1 ΔacrAB [1]): toxic |
| NP_250708: Pseudomonas aeruginosa PA01 efflux pump, accession of inner membrane protein, SEQ ID NO:4 (protein, listed as Pseudomonas aeruginosa) MARFFIDRPVFAWVISLLIVLAGVLAIRFLPVAQYPDIAPPVVNVSASYPGASAKVVEEAVTAIIEREMNGAPGLLYTKATSSTGQASLTLTFRQGVNADLAAVEVQNRLKIVESRLPESVRRDGIYVEKAADSIQLIVTLTSSSGRYDAMELGEIASSNVLQALRRVEGVGKVETWGAEYAMRIWPDPAKLTSMNLSASDLVNAVRRHNARLTVGDIGNLGVPDSAPISATVKVDDTLVTPEQFGEIPLRIRADGGAIRLRDVARVEFGQSEYGFVSRVNQMTATGLAVKMAPGSNAVATAKRIRATLDELSRYFPEGVSYNIPYDTSAFVEISIRKVVSTLLEAMLLVFAVMYLFMQNFRATLIPTLVVPVALLGTFTVMLGLGFSINVLTMFGMVLAIGILVDDAIIVVENVERLMAEEGLSPHDATVKAMRQISGAIVGITVVLVSVFVPMAFFSGAVGNIYRQFAVTLAVSIGFSAFLALSLTPALCATLLRPIDADHHEKRGFFGWFNRAFLRLTGRYRNAVAGILARPIRWMLVYTLVIGVVALLFVRLPQAFLPEEDQGDFMIMVMQPEGTPMAETMANVGDVERYLAEHEPVAYAYAVGGFSLYGDGTSSAMIFATLKDWSERREASQHVGAIVERINQRFAGLPNRTVYAMNSPPLPDLGSTSGFDFRLQDRGGVGYEALVKARDQLLARAAEDPRLANVMFAGQGEAPQIRLDIDRRKAETLGVSMDEINTTLAVMFGSDYIGDFMHGSQVRKVVVQADGAKRLGIDDIGRLHVRNEQGEMVPLATFAKAAWTLGPPQLTRYNGYPSFNLEGQAAPGYSSGEAMQAMEQLMQGLPEGIAHEWSGQSFEERLSGAQAPALFALSVLIVFLALAALYESWSIPLAVILVVPLGVLGALLGVSLRGLPNDIYFKVGLITIIGLSAKNAILIIEVAKDHYQEGMSLLQATLEAARLRLRPIVMTSLAFGFGVVPLALSSGAGSGAQVAIGTGVLGGIVTATVLAVFLVPLFFLVVGRLFRLRKAPRTGNSPQIPTEQA |  |  | survived the competition |  |
| AcrB: Escherichia coli K12 AcrAB efflux pump, plasmid-based copy (protein, UniProt P31224 1-1049, looked up) Multidrug efflux pump subunit …: MPNFFIDRPIFAWVIAIIIMLAGGLAILKLPVAQYPTIAPPAVTISASYPGADAKTVQDTVTQVIEQNMNGIDNLMYMSSNSDSTGTVQITLTFESGTDADIAQVQVQNKLQLAMPLLPQEVQQQGVSVEKSSSSFLMVVGVINTDGTMTQEDISDYVAANMKDAISRTSGVGDVQLFGSQYAMRIWMNPNELNKFQLTPVDVITAIKAQNAQVAAGQLGGTPPVKGQQLNASIIAQTRLTSTEEFGKILLKVNQDGSRVLLRDVAKIELGGENYDIIAEFNGQPASGLGIKLATGANALDTAAAIRAELAKMEPFFPSGLKIVYPYDTTPFVKISIHEVVKTLVEAIILVFLVMYLFLQNFRATLIPTIAVPVVLLGTFAVLAAFGFSINTLTMFGMVLAIGLLVDDAIVVVENVERVMAEEGLPPKEATRKSMGQIQGALVGIAMVLSAVFVPMAFFGGSTGAIYRQFSITIVSAMALSVLVALILTPALCATMLKPIAKGDHGEGKKGFFGWFNRMFEKSTHHYTDSVGGILRSTGRYLVLYLIIVVGMAYLFVRLPSSFLPDEDQGVFMTMVQLPAGATQERTQKVLNEVTHYYLTKEKNNVESVFAVNGFGFAGRGQNTGIAFVSLKDWADRPGEENKVEAITMRATRAFSQIKDAMVFAFNLPAIVELGTATGFDFELIDQAGLGHEKLTQARNQLLAEAAKHPDMLTSVRPNGLEDTPQFKIDIDQEKAQALGVSINDINTTLGAAWGGSYVNDFIDRGRVKKVYVMSEAKYRMLPDDIGDWYVRAADGQMVPFSAFSSSRWEYGSPRLERYNGLPSMEILGQAAPGKSTGEAMELMEQLASKLPTGVGYDWTGMSYQERLSGNQAPSLYAISLIVVFLCLAALYESWSIPFSVMLVVPLGVIGALLAATFRGLTNDVYFQVGLLTTIGLSAKNAILIVEFAKDLMDKEGKGLIEATLDAVRMRLRPILMTSLAFILGVMPLVISTGAGSGAQNAVGTGVMGGMVTATVLAIFFVPVFFVVVRRRFSRKNEDIEHSHTVDHH |  |  | survived the competition | outcome of efflux pump in competition (E. coli DH1 ΔacrAB [1]; 0.025% limonene, 72 hours serial dilution): best exported; outcome of efflux pump in competition (E. coli DH1 ΔacrAB [1]; 0.05% geraniol, 72 hours serial dilution): best exported |
| YP_692684: Alcanivorax borkumensis SK2 efflux pump, accession of inner membrane protein, SEQ ID NO:2 (protein, listed as Alcanivorax borkumensis) MARFFIDRPIFAWVIAIIMMMAGALAIYTLPIEQYPTVAPPQVSIAGNYPGASAKTVEDSVTQVIEQQMNGIDNLLYMSSSSDSFGNAAVNLTFAPGTDPDIAQVQVQNKLQLATPLLPQEVQQQGMQVTKSSDSFLMVAGFTSEDGSLSRADLADYVASNVQDPVSRVPGVGQIQLFGSPYAMRVWLDPNKLNKFDLTPQDVTQTIEVQNNQVASGQLGGAPAVEGQQLNATIIAQTRLEDVDQFENILLKVNPDGSRVFLKDVARVELAAQNYDVQGRYNGQPAAGLAISLATGANALDTAEALRARLAELQPYFPDKMEMVFPYDTTPFVSISIEEVVHTLFEAIILVFLVMYLFLQNFRATLIPTLAVPVVLLGTFAVLAAFGFSINTLTMFGMVLAIGLLVDDAIVVVENVERVMHEEGLPPKEATRKSMGQITGALVGIALVLSAVFVPMAFFPGSTGAIYRQFSITIVSAMVLSVLVALILTPALCATMLKAKDSEHQTDHGFFGWFNRTFDKSSRRYQGSVEKILGRRGRYLFIYVVIVGVLGFSFMRLPSSFLPEEDQGILFTLVTLPAGSTQEQTVKVLEKMEDYYLNEEASAVDGLFTVAGFSFTGRGQNAGMAFVNLKDWSERDLSVDGADNVVARAMGYFSTIREAMMFALNPPSIPELGNASGFDFQLLDQSGQGHEALIQARNQMLGMAAQDPRLAGVRPNGLEDSPQYQIDIDQQKAKALGLSISDINSTLQIAWGSSYVNNFVDRGRVKRVYVQADAPYRMLPENVNDWFVRNNQGKMVPFSTFATGHWTYGSPKLERYNGVSSVNIQGNAAPGYSTGDAMDAMEELSAKLPAGFGFEWTGMSYQERQSGDQAPALYVISLLVVFLCLAALYESWSIPFAVMLVVPLGILGAVLAATFRDLNNDVFFQVGLLTTIGLSAKNAILIAEFALELEQKGEHLLKATLEAVRMRLRPILMTSLAFMLGVTPLMISTGAGAGARNAIGTGVFGGMLTATVLAIFFIPLFYVAVRKLSGVPLDGKKKGKE |  |  | increase survival; also recorded: best pump |  |
| NP_745594: Pseudomonas putida KT2440 efflux pump, accession of inner membrane protein, SEQ ID NO:3 (protein, listed as Pseudomonas putida) MPQFFIDRPVFAWVVALFILLAGALAIPQLPVAQYPNVAPPQVEIYAVYPGASAATMDESVVSLIEQELNGADNLLYFESQSSLGSATITATFAPGTHPDLAQVDVQNRLKVVESRLPRPVTQQGLQVEKVSTGFLLLATLTSEDGKLDETALSDILARNVMDEIRRLKGVGKAQLYGSERAMRIWIDPRKLIGFNLTPNDVAEAIAAQNAQVAPGSIGDLPSRSTQEITANVVVKGQLSSPDEFAAIVLRANPDGSTVTIGDVARVEIGAQEYQYGTRLNGKPATAFSVQLSPGANAMETATLVRAKMQDLARYFPEGVKYDIPYDTSPFVKVSIEQVINTLFEAMLLVFAVMFLFLQNLRYTLIPTLVVPVALMGTFAVMLAMGFSVNVLTLFGMVLAIGILVDDAIVVVENVERIMAEEGLPPKQATRKAMGQISGAIVGITLVLVAVFLPMAFMQGSVGVIYQQFSLSMAVSILFSAFLALSLTPALCATLLKPVAKGEHHERKGFFGWFNRRFESMSNGYQRWVVQALKRSGRYLLVYAVLLAVLGYGFSQLPTAFLPTEDQGYTITDIQLPPGASRMRTEQVAAQIEAHNAEEPGVGNTTLILGFSFSGSGQNAALAFTTLKDWSERGADDSAQSIADRATMAFTQLKDAIAYSVLPPPIDGLGESTGFEFRLQDRGGMGHAELMAARDQLLESASKSKVLTNVREASLAESPQVQLEIDRRQANALGVSFADIGTVLDVAVGSSYVNDFPNQGRMQRVVVQAEGDQRSQVEDLLNIHVRNDSGKMVPLGAFVQARWVSGPVQLTRYNGYPAVSISGEPAAGYSSGEAMAEVERLVAQLPAGTGLEWTGLSLQERLSGSQAPLLMALSLLVVFLCLAALYESWSIPTAVLLVVPLGVLGAVLAVTLRGMPNDVFFKVGLITLIGLSAKNAILIIEFAKHLVDQGVDAADAAVQAARLRLRPIVMTSLAFILGVVPLAIASGASSASQQAIGTGVIGGMLSATLAVVFVPVFFVVVMRLSGRRQAHDSDGQPVPRES |  |  | survived the competition |  |
